Laboratory results from patent publication US7462598B2, “Antimicrobial theta defensins, analogs thereof, and methods of use” (priority 2002, dated 2008).
Bridge positions count the residues as written; N and C are the ends. Peptide text beside a SMILES is read from it.

Columns and labels:
[1] = test system: S. aureus 502a; test: Cell-suspension microbicidal assay (MMC); assay type: cell-based, Staphylococcus aureus; conditions: for MMC, S. aureus: lowest concentration that reduced cell viability by 99.9%, 10 mM PIPES, 5 mM glucose, pH 7.4, 2 h 37° C.; for fold reduction of staphylocidal potency relative to the peptide acid analog: carboxamide versus C-terminal acid of the same acyclic θ-defensin
Description: (§1) To test microbicidal activities, the activities of each peptide against S. aureus 502a, E. coli ML35, and C. albicans 16820 were assessed essentially as described in Example I with modifications to allow for simultaneous analysis of all twenty peptides. Briefly, two-fold serial dilutions of each peptide (in 0.01% acetic acid 0.062-8.0 μg/ml final concentrations) were mixed with 10 mM PIPES, pH 7.4, containing 5 mM glucose in sterile polystyrene 96-well plates (Corning, N.Y.). Aliquots of log-phase bacteria or yeast were added to a 2×10^6 CFU/ml final density as determined by A620. After 2 h incubation at 37° C., 15 μl of the incubation mixture was removed and serially diluted ten-fold from 1:10 to 1:10^6 in trypticase soy broth (bacteria) or Sabaraud dextrose broth (C. albicans). The diluted cell suspensions were grown 24-48 h at 37° C. until cell pellets were visible. Microbicidal activity was determined as absence of growth and was correlated to CFU/ml in control experiments where activity was determined in parallel by colony counting (see Example I). Absence of growth at the 1:10^3 dilution is equivalent to a 3-log reduction in microbial viability.
(§2) The microbicidal activities of each peptide against E. coli ML35, S. aureus 502a, and C. albicans 16820 were determined with cell-suspension microbicidal assays in 96-well plates (see Example II). Briefly, log-phase cells (2×10^6 CFU/ml final) were incubated with increasing concentrations of peptides (0-8 μg/ml final) in 50 μl of 10 mM PIPES, 5 mM glucose, pH 7.4, for 2 h at 37° C. Incubation mixtures were diluted 1:10 to 1:10^6 with trypticase-soy broth (bacteria) or Sabaraud dextrose broth (fungi) and incubated at 37° C. for 24-48 h until cell pellets were visible. Microbicidal activities (confirmed in control experiments as described in Example II) were determined as the absence of a cell pellet in the various dilutions. Peptide concentrations that caused ≧99.9% killing (absence of a cell pellet at 1:10^3 dilution) were taken as the minimum microbicidal concentrations (MMC).

[2] = test system: C. albicans 16820; test: Cell-suspension microbicidal assay (MMC); assay type: cell-based, Candida albicans; conditions: for MMC, C. albicans: lowest concentration that reduced cell viability by 99.9%, 10 mM PIPES, 5 mM glucose, pH 7.4, 2 h 37° C.; for fold higher potency against C. albicans than the peptide acid analog: carboxamide versus C-terminal acid of the same acyclic θ-defensin
Description: as §1, §2

[3] = test system: E. coli ML35; test: Cell-suspension microbicidal assay (MMC); assay type: cell-based, Escherichia coli; conditions: for MMC, E. coli: lowest concentration that reduced cell viability by 99.9%, 10 mM PIPES, 5 mM glucose, pH 7.4, 2 h 37° C.; for fold higher potency against E. coli than the peptide acid analog: carboxamide versus C-terminal acid of the same acyclic θ-defensin
Description: as §1, §2

[4] = test system: S. aureus 502a, E. coli ML35, and C. albicans 16820; test: Cell-suspension microbicidal assay, statements across the test organisms (lowest MMC, overall ranges); assay type: cell-based; conditions: peptide concentration that kill 99.9% of either S. aureus, E. coli, or C. albicans; lowest MMC value
Description: as §1, §2
(§3) A selectivity index (SI=H/M) was calculated as a ratio of a peptide concentration (μg/ml) that causes 3% hemolysis (H) obtained from a dose-dependent hemolysis plot over 0.3 to 3 μg/ml of each peptide in PBS and the lowest MMC value (M) for any of the three test microorganisms (see Example II; Table 2).

[5] = test system: E. coli ML35; test: Membrane permeabilization assay (ONPG hydrolysis); assay type: cell-based, Escherichia coli; conditions: rates at 1 μg/ml concentration of each peptide
Description: For the membrane permeabilization assay, the permeabilization of bacterial cytoplasmic membranes was determined by measuring hydrolysis of o-nitrophenyl-β-D-galactcpyranoside (ONPG) in E. coli ML35 (Sitaram et al., FEBS Lett. 303:265-268 (1992); Lehrer et al.,. J. Immunol. Methods 108:153-158 (1988)). Peptides dissolved in 5 μl of 0.01% acetic acid were two-fold serially diluted with 10 mM PIPES, pH 7.4, containing 3 mM ONPG, to final peptide concentrations of 0-8.0 μg/ml. Log-phase bacteria, prepared in PIPES buffer as described for the microbicidal assay (see Example I), were added to 1×10^6 CFU/ml final density in a final volume of 90 μl. ONPG hydrolysis was measured at 405 nm for 60 min using a SpectraMAX 190 plate reader and SOFTmaxPRO 3.1 (Molecular Devices Corp., CA). […]

[6] = test system: human erythrocytes; test: Hemolysis assay; assay type: cell-based
Description: For the hemolysis assay, the hemolytic activity of each peptide was determined by the method of Tam et al. (Tam et al., Eur. J. Biochem. 267:3289-3300 (2000)). Blood was obtained from a healthy donor in accordance to a protocol approved by the Institutional Review Board. Normal human serum was prepared from the same individual and stored at −20° C. Red blood cells (RBC) were prepared from blood collected in EDTA. RBC were harvested at 234×g for 10 min, 22° C., washed four times with 10 mM sodium phosphate, 150 mM NaCl, pH 7.4 (PBS), containing 4 mM EDTA and resuspended in PBS without EDTA. Peptides dissolved in 10 μl 0.01% HOAc were diluted with PBS to final concentrations of 0.3-100 μg/ml. RBC were added to a 2% final density in 100 μl. Incubation mixtures were also prepared with 10% serum. After 1 h incubation at 37° C., the cell suspensions were centrifuged at 234×g for 10 min, 22° C. Fifty-μl samples of the supernatants were removed, and the absorbance at 405 nm (A) was measured. Hemolytic activity of each peptide was calculated relative to lysis by 1% NP-40 using the following formula:
as §3

Structure (SMILES) | MMC, S. aureus [1] [µg/mL] | fold lower candidacidal potency than native PG-1 ([2]; from MMC, Table 2) [fold] | MMC, C. albicans [2] [µg/mL] | MMC, E. coli [3] [µg/mL] | M [4] [µg/mL] | ONPG hydrolysis [5] | hemolysis [6] | fold reduction of staphylocidal potency relative to the peptide acid analog [1] | fold higher potency against C. albicans than the peptide acid analog [2] | fold higher potency against E. coli than the peptide acid analog [3] | H ([6]; peptide concentration that causes 3% hemolysis, calculated from dose-dependent hemolysis plot over 0.3-3 μg/ml in PBS) [µg/mL] | fold lower staphylocidal potency than native PG-1 ([1]; from MMC, Table 2) [fold] | fold lower staphylocidal activity than 3cys 3:1 PG-1-OH ([1]; from MMC, Table 2) | fold lower candidacidal activity than 3cys 3:1 PG-1-OH ([2]; from MMC, Table 2)
CC(C)[C@@H]1NC(=O)[C@@H]2CSSC[C@H](NC(=O)[C@H](CCCNC(=N)N)NC(=O)[C@@H]3CSSC[C@H](NC1=O)C(=O)N[C@@H](CCCNC(=N)N)C(=O)N[C@@H](CCCNC(=N)N)C(=O)NCC(=O)NCC(=O)N3)C(=O)N[C@@H](Cc1ccc(O)cc1)C(=O)N[C@H]1CSSC[C@H](NC(=O)[C@H](Cc3ccccc3)NC(=O)[C@H](CCCNC(=N)N)NC(=O)[C@H](CCCNC(=N)N)NC(=O)[C@H](CCCNC(=N)N)NC1=O)C(=O)N[C@@H](C(C)C)C(=O)N2 [3cys cPG-1] (cyclo(GGCRCYCRRRFCVCVCRR); disulfide 3-16, 5-14, 7-12) | 0.5 | 3 | 2.5 | 1.3 | 0.5 | 10.7 (A405/sec) · 10^−5 | 5-6% |  |  |  |  |  |  | 
CC(C)C[C@@H]1NC(=O)[C@@H]2CSSC[C@H](NC(=O)[C@H](CCCNC(=N)N)NC(=O)[C@@H](NC(=O)[C@@H](NC(=O)CN)C(C)C)CSSC[C@@H](C(=O)N[C@@H](CCCNC(=N)N)C(=O)N[C@@H](CCCNC(=N)N)C(N)=O)NC1=O)C(=O)N[C@@H](CC(C)C)C(=O)N[C@H]1CSSC[C@H](NC(=O)[C@H](C(C)C)NC(=O)CNC(=O)[C@H](CCCNC(=N)N)NC(=O)[C@H](CCCNC(=N)N)NC1=O)C(=O)N[C@@H](CCCNC(=N)N)C(=O)N2 [aRTD-3-NH] (H-GVCRCLCRRGVCRCLCRR-NH2; disulfide 3-16, 5-14, 7-12; N-terminus assumed) | 4.5 |  | 0.8 | 1.0 | 0.75 | 9.7 (A405/sec) · 10^−5 |  | 3 fold | 2- to 4 fold | 2- to 4 fold |  |  |  | 
CC[C@H](C)[C@@H]1NC(=O)[C@@H]2CSSC[C@H](NC(=O)[C@H](CCCNC(=N)N)NC(=O)[C@@H](NC(=O)[C@H](Cc3ccccc3)NC(=O)CN)CSSC[C@@H](C(=O)N[C@H](C(=O)N[C@@H](CCCNC(=N)N)C(N)=O)[C@@H](C)O)NC1=O)C(=O)N[C@@H](CC(C)C)C(=O)N[C@H]1CSSC[C@H](NC(=O)[C@H](C(C)C)NC(=O)CNC(=O)[C@H](CCCNC(=N)N)NC(=O)[C@H](CCCNC(=N)N)NC1=O)C(=O)N[C@@H](CCCNC(=N)N)C(=O)N2 [aRTD-1-NH] (H-GFCRCLCRRGVCRCICTR-NH2; disulfide 3-16, 5-14, 7-12; N-terminus assumed) | 5.0 |  | 1.0 | 2.0 | 1 | 8.8 (A405/sec) · 10^−5 |  | no effect | 4 fold | 4 fold | 8.8 |  |  | 
CC(C)[C@@H]1NC(=O)[C@@H]2CSSC[C@H](NC(=O)[C@H](CCCNC(=N)N)NC(=O)[C@@H](NC(=O)CNC(=O)CNC(=O)[C@@H](N)CCCNC(=N)N)CSSC[C@@H](C(=O)N[C@@H](CCCNC(=N)N)C(N)=O)NC1=O)C(=O)N[C@@H](Cc1ccc(O)cc1)C(=O)N[C@H]1CSSC[C@H](NC(=O)[C@H](Cc3ccccc3)NC(=O)[C@H](CCCNC(=N)N)NC(=O)[C@H](CCCNC(=N)N)NC(=O)[C@H](CCCNC(=N)N)NC1=O)C(=O)N[C@@H](C(C)C)C(=O)N2 [3cys 3:1 PG-1-NH] (H-RGGCRCYCRRRFCVCVCR-NH2; disulfide 4-17, 6-15, 8-13; N-terminus assumed) | 2.0 | 5 | 4.0 | 1.5 | 1.5 | 12.3 (A405/sec) · 10^−5 |  |  |  |  |  | 5 |  | 
CC(C)C[C@H](NC(=O)[C@H](CCCNC(=N)N)NC(=O)CNC(=O)CN)C(=O)N[C@H]1CSSC[C@@H](C(=O)N[C@H](C(=O)NCC(=O)N[C@@H](CCCNC(=N)N)C(=O)N[C@@H](CCCNC(=N)N)C(=O)O)C(C)C)NC(=O)[C@H](C(C)C)NC(=O)[C@@H]2CSSC[C@H](NC(=O)[C@H](Cc3ccc(O)cc3)NC1=O)C(=O)N[C@@H](CCCNC(=N)N)C(=O)N[C@@H](CCCNC(=N)N)C(=O)N[C@@H](CCCNC(=N)N)C(=O)N[C@@H](Cc1ccccc1)C(=O)N2 [4:4 PG-1-OH] (H-GGRLCYCRRRFCVCVGRR-OH; disulfide 5-14, 7-12; N-terminus assumed) | 1.0 |  | 2.5 | 1.0 | 1 | 12.1 (A405/sec) · 10^−5 |  |  |  |  |  |  |  | 
CC(C)[C@@H]1NC(=O)[C@@H]2CSSC[C@H](NC(=O)[C@H](CCCNC(=N)N)NC(=O)[C@@H](NC(=O)CNC(=O)CN)CSSC[C@@H](C(=O)N[C@@H](CCCNC(=N)N)C(=O)N[C@@H](CCCNC(=N)N)C(=O)O)NC1=O)C(=O)N[C@@H](Cc1ccc(O)cc1)C(=O)N[C@H]1CSSC[C@H](NC(=O)[C@H](Cc3ccccc3)NC(=O)[C@H](CCCNC(=N)N)NC(=O)[C@H](CCCNC(=N)N)NC(=O)[C@H](CCCNC(=N)N)NC1=O)C(=O)N[C@@H](C(C)C)C(=O)N2 [3cys 2:2 PG-1-OH] (H-GGCRCYCRRRFCVCVCRR-OH; disulfide 3-16, 5-14, 7-12; N-terminus assumed) | 2.0 |  | 4.0 | 1.0 | 1 | 13.0 (A405/sec) · 10^−5 |  |  |  |  |  |  | 2-4 fold | 2-4 fold
CC(C)[C@@H]1NC(=O)[C@@H]2CSSC[C@H](NC(=O)[C@H](CCCNC(=N)N)NC(=O)[C@@H](NC(=O)CNC(=O)CNC(=O)[C@@H](N)CCCNC(=N)N)CSSC[C@@H](C(=O)N[C@@H](CCCNC(=N)N)C(=O)O)NC1=O)C(=O)N[C@@H](Cc1ccc(O)cc1)C(=O)N[C@H]1CSSC[C@H](NC(=O)[C@H](Cc3ccccc3)NC(=O)[C@H](CCCNC(=N)N)NC(=O)[C@H](CCCNC(=N)N)NC(=O)[C@H](CCCNC(=N)N)NC1=O)C(=O)N[C@@H](C(C)C)C(=O)N2 [3cys 3:1 PG-1-OH] (H-RGGCRCYCRRRFCVCVCR-OH; disulfide 4-17, 6-15, 8-13; N-terminus assumed) | 0.5 |  | 1.5 | 1.5 | 0.5 | 11.0 (A405/sec) · 10^−5 |  |  |  |  |  |  |  | 
